The source of these data is ChEMBL document CHEMBL4011609, “Discovery of novel BRD4 inhibitors by high-throughput screening, crystallography, and cell-based assays” (Bioorg Med Chem Lett, 2017).

What is called IC50 is the concentration at which inhibition is half-maximal. As a reminder, the inhibition is the change of the read-out against control, counted positive when it falls.

For assay [1], the target named is T1, Bromodomain-containing protein 4 (Homo sapiens, UniProt O60885). Briefly: Inhibition of human BRD4-BD1 (49 to 170 residues) expressed in Escherichia coli BL21(DE3) using N-C:SGRG-K(Ac)-GG-K(Ac)-GLG-K(Ac)-GGA-K(Ac)-RHRKVGG-K(biotin) as substrate preincubated for 15 mins followed by substrate addition measured after 5 mins by AlphaScreen assay. In general terms: Bead proximity is the source of the signal in Alpha formats.

Assay [2] has as its target T1, Bromodomain-containing protein 4. Briefly: Inhibition of human BRD4-BD1 (49 to 170 residues) expressed in Escherichia coli BL21(DE3) using N-C:SGRG-K(Ac)-GG-K(Ac)-GLG-K(Ac)-GGA-K(Ac)-RHRKVGG-K(biotin) as substrate preincubated for 15 mins followed by substrate addition measured after 5 mins by AlphaScreen assay relative to control. On the set-up: concentration or dose not given beside the values.

The structures appear in SMILES notation.

In turn, `CCOC(=O)c1ncccc1NC(=O)CC(=O)Nc1cccnc1C(=O)OCC` displayed an IC50 in assay [1] of 2.87 µM.

In assay [1], `Cc1ccc(-[n+]2c3ccccc3nc3ccc(N4CCOCC4)cc32)cc1` showed an IC50 of 10.9 µM.

As to `O=C(NCCNc1cc(=O)oc2ccccc12)c1ccco1`, the inhibition in assay [2] amounted to 43.6%.

`CN(CCCNc1cc(=O)oc2ccccc12)S(=O)(=O)c1ccccc1` returned an inhibition in assay [2] of 28.6%.

As to `CCCNS(=O)(=O)c1ccc2c3c(cccc13)C(=O)N2C`, in assay [1], the IC50 was determined as 9.57 µM.

In assay [1], `O=C(NCCNc1ccc(-n2cccn2)nn1)c1ccccc1Cl` had an IC50 of 11.2 µM.

As to `O=C(NCc1n[nH]c(=O)c2ccccc12)c1cccc(Cl)c1`, the IC50 in assay [1] amounted to 47.3 µM.

The compound `CCN1C(=O)c2cccc3c(S(=O)(=O)Nc4ccccc4C)ccc1c23` yielded an IC50 in assay [1] of 9.68 µM.

In the case of `COc1cccc2cc(C(=O)N(C)C)c(=O)oc12`, the inhibition in assay [2] amounted to 38.5%.

`CC(=O)C(C(C)=O)C(c1ccc(Cl)cc1)c1ccc(Cl)cc1`: the IC50 in assay [1] was found to be 27.5 µM.

In assay [1], `O=C(Nc1cccc(S(=O)(=O)N2CCCC2)c1)c1nc[nH]n1` came in with an IC50 of 42.2 µM.

`O=C(Nc1ccc(Cl)cn1)c1c(F)c(F)c(F)c(F)c1F`: the IC50 in assay [1] is 32.2 µM.

Take `O=C(NCCNc1ccc(-n2cccn2)nn1)c1ccccc1`: half-maximal inhibition in assay [1] (IC50) required 13.8 µM.

`O=C(NCCCNC(=O)c1cccs1)c1nc2ccccc2c(=O)[nH]1` returned an inhibition in assay [2] of 71.5%.

As for `O=c1cc(NCCCn2ccnc2)c2ccccc2o1`, the inhibition in assay [2] was 58.5%.

Turning to `COc1ccccc1NC(=O)CCSc1cccc2cccnc12`, the IC50 in assay [1] was determined as 18.7 µM.

`CCCNS(=O)(=O)c1ccc2c3c(cccc13)C(=O)N2CC`: half-maximal inhibition in assay [1] (IC50) required 2.64 µM.

In assay [2], `O=c1cc(NC2CCN(CCCc3ccccc3)CC2)c2ccc(Cl)cc2o1` gave an inhibition of 22.1%.

Compound `O=c1oc2ccccc2c2ncn(CCCN3CCOCC3)c12` had an inhibition in assay [2] of 40.7%.

Take `O=C(NCCNc1cc(=O)oc2ccccc12)c1cccs1`: in assay [2], the inhibition came out at 72%.

In assay [1], `O=c1[nH]n(CC2COC3(CCCCC3)O2)c(=O)c2ccccc12` (configuration not stated) displayed a concentration for half-maximal inhibition (IC50) of 13.3 µM.

In turn, `CN(CCCNC(=O)c1nc2ccccc2c(=O)[nH]1)C(=O)c1cccs1` had an inhibition in assay [2] of 56.5%.

In assay [2], `O=C(NCCNc1cc(=O)oc2ccccc12)c1ccc2ccccc2n1` displayed an inhibition of 12.8%.

For the compound `COc1ccc(C(=O)N(C)CCCNc2cc(=O)oc3ccccc23)cc1`, in assay [2], the inhibition is 48.9%.

Compound `O=c1oc2ccccc2c(NCCCN2CCOCC2)c1[N+](=O)[O-]` gave an inhibition in assay [2] of 42.8%.

`CC(=O)N(C)c1ccc(NC(=O)COc2ccc(Br)cc2Cl)cc1` showed an IC50 in assay [1] of 50.9 µM.

In assay [1], `CC1(C)CON(Cc2ccc(N3C(=O)c4cccnc4C3=O)cc2Cl)C1=O` showed an IC50 of 12.7 µM.

In assay [1], `CC(=O)CC(c1ccccc1)c1c(O)c2ncccc2oc1=O` (configuration not stated) gave an IC50 of 2.83 µM.

Regarding `CCCn1nnc(NC(=O)COc2ccc(Cl)cc2C)n1`, in assay [1], the IC50 amounted to 23.1 µM.

In assay [1], `CN(CCCNc1cc(=O)oc2ccccc12)C(=O)c1cccc(F)c1` yielded an IC50 of 8.18 µM. This compound also yielded an inhibition in assay [2] of 97.3%.

`CN(CCCNc1cc(=O)oc2ccccc12)C(=O)c1ccco1` yielded an IC50 in assay [1] of 2.05 µM. Also, the inhibition in assay [2] came to 98%.

Regarding `O=c1cc(NCCCN2CCN(Cc3ccccc3)CC2)c2ccccc2o1`, in assay [2], the inhibition was found to be 52.3%.

For `Cc1ccc(C)c(NC(=O)CC(c2ccccc2)c2ccccc2)c1`, half-maximal inhibition in assay [1] (IC50) was put at 50.7 µM.

Consider `CCN1C(=O)c2cccc3c(S(=O)(=O)N4CCCC4)ccc1c23`, for which half-maximal inhibition in assay [1] (IC50) required 1.91 µM.

For `N#Cc1c(-c2ccc(Cl)cc2)cc(-c2cccs2)nc1SCC(=O)NCC(=O)O`, the IC50 in assay [1] turned out to be 0.89 µM.

For `O=C(CN1CC(=O)Oc2ccccc21)OCC(=O)c1ccc(Br)cc1`, the midpoint of inhibition in assay [1], the IC50, lay at 1.11 µM.

`O=C(NCCCNc1cc(=O)oc2ccccc12)c1cccnc1` came in with an inhibition in assay [2] of 30.2%.

Turning to `O=c1oc2ccccc2c(NC2CCN(Cc3ccccc3)CC2)c1[N+](=O)[O-]`, the inhibition in assay [2] was determined as 58.5%.

The compound `COC(=O)C(O)(c1cc(C)c2cccnc2c1O)C(F)(F)F` (configuration not stated) returned an IC50 in assay [1] of 2.1 µM.

In assay [1], `O=C(CNc1cc(=O)oc2ccccc12)OCC(=O)c1ccc(Br)cc1` showed an IC50 of 1.04 µM. The inhibition in assay [2] was 97.4%.

In assay [1], `CN(CCCNc1cc(=O)oc2ccccc12)C(=O)C(C)(C)C` showed an IC50 of 4.56 µM. Besides, the inhibition in assay [2] came to 96.2%.

On to `COc1ccc(C2=NN(C(=O)CCCC(=O)O)C(c3cn(-c4ccccc4)nc3-c3ccccc3)C2)cc1` (configuration not stated), for which the IC50 in assay [1] stood at 5.36 µM.

As to `COc1ccc(/C=C(\NC(=O)c2ccc(C)cc2)C(=O)NCCCn2ccnc2)cc1`, the midpoint of inhibition in assay [1], the IC50, lay at 11 µM.

In turn, `CN(C)CCCNCCCNc1cc(=O)oc2ccccc12` gave an inhibition in assay [2] of 37.2%.

Take `CN(CCCNc1cc(=O)oc2ccccc12)C(=O)c1cccc(Cl)c1`: the IC50 in assay [1] was 3.65 µM. In assay [2], this compound came in with an inhibition of 97.1%.

In assay [1], `c1coc(-c2nnc(-c3ccc4ccccc4c3)c3nocc23)c1` displayed an IC50 of 13.3 µM.

Compound `CN1CCN(CCCNc2c(N)c(=O)oc3ccccc23)CC1` came in with an inhibition in assay [2] of 24.5%.

`Cc1ccn(-c2ccc(NCCNC(=O)c3ccc(Br)o3)nn2)n1` yielded an IC50 in assay [1] of 21.3 µM.

`CCc1nnc(NC(=O)C2(C)COC(c3ccccc3)OC2)s1` (configuration not stated) displayed an IC50 in assay [1] of 69.2 µM.

Compound `O=c1cc(NCCCN2CCOCC2)c2ccccc2o1` came in with an inhibition in assay [2] of 59.9%.

As to `Cc1[nH]n(-c2nc(O)c(Cc3ccccc3)c(=O)[nH]2)c(=O)c1CCO`, in assay [1], the half-inhibitory concentration (IC50) turned out to be 3.09 µM.

As to `O=C(c1ccccc1)c1ccc(NS(=O)(=O)c2cccc(Br)c2)cc1`, half-maximal inhibition in assay [1] (IC50) was put at 39 µM.
